Experimental data published in patent publication US11311576B2, “Methods of use for CAR T cells” (Seattle Children's Hospital, priority 2018, dated 2022).

Assays:
[1] = test system: MDA-MB-231; assay: CAR-T cell activation markers (CD69, CD137, PD1) after 24 h co-culture with EC17-preloaded targets; format: cell-based, human; settings: targets preloaded with 100 nM EC17 30 min, E/T 1:1, 24 hours
Experimental: (§1) To study CAR-T cell activation in the presence of FR+ tumor cell targets (FIG. 53), co-culture experiments were initially carried out with MDA-MB-231, THP1-FRβ and HOS-FRα. […] After 24 hours of co-culture, the surface expression of T cell activation markers CD69, CD137 (4-1BB), and PD1 were analyzed by flow cytometry. For T cell exhaustion studies (FIG. 54), FR+(KB, MDA-MB-231, HOS-FRα^fLuc, THP1-FRβ) and FR-negative (HOS-143b^fLuc, THP1-FG12) tumor cell lines were used as targets. Here, target cells were incubated on day 0 without or with 0.1 and 10 nM of EC17 for 30 min at 37° C. and the status of EC17 “pre-loading” was assessed by counterstaining cell-surface EC17 with an anti-FITC antibody (FIG. 61A). Three days later, the surface expression of PD1, LAG3, and TIM3 inhibitor receptors on co-cultured CAR-T cells were analyzed and higher frequencies of double- and triple-positive cells were considered approaching an exhausted phenotype.
(§2) To examine antigen-dependent CAR-T cell activation, MDA-MB-231, THP1-FRβ and HOS-FRα cells were preloaded with 100 nM EC17 over 30 min. […] After 24 hours of co-culture, we measured the surface expression of T cell activation markers CD69, CD137 (4-1BB) and PD1 (FIG. 53). […] Importantly, the mock controls T cells were not activated under these conditions. Some FR+ tumor types (e.g. KB) display a natural resistance to killing by EC17-directed CAR T cells (FIGS. 56, 58, 59, and 60), we studied T cell activation versus exhaustion as a mechanism of EC17 CAM action. Both FR+(KB, MDA-MB-231, HOS-FRα^fLuc, THP1-FRβ) and FR-negative (HOS-143b^fLuc, THP1-FG12) tumor cell lines were chosen for this purpose. HOS-FRα^fLuc expressed ˜5.6× lower level of functional FR than its parent HOS-FRα, and HOS-143b^fLuc was FR-negative similar to HOS-143b (FIG. 59A). […] Three days later, co-cultured CAR-T cells were measured for upregulation and co-expression of T cell activation/exhaustion markers PD1, LAG3 and TIM3. […]

[2] = test system: THP1-FRb; assay: as above; format: cell-based, human; settings: targets preloaded with 100 nM EC17 30 min, E/T 1:1, 24 hours
Experimental: as §1, §2

[3] = test system: HOS-FRα; assay: as above; format: cell-based, human; settings: targets preloaded with 100 nM EC17 30 min, E/T 1:1, 24 hours
Experimental: as §1, §2

[4] = EC17/E2-CAR T-cell therapy in naïve NSG mice without tumor; format: in vivo; settings: 10 million E2 CAR-T cells, EC17 500 nmol/kg x2 doses
Experimental: EGFRt-sorted anti-FITC E2 scFv-CAR T cells were frozen in a T-cell freezing medium. Vials of frozen CAR-T cells were immediately stored at −80° C. The CAR-T cells were quickly thawed at 37° C., washed twice with PBS, and used for animal injection at 10 million viable EGFRt+E2 CAR-T cells (CD4/CD8 at ˜1:1) per animal. A small aliquot was taken on the day infusion for flow cytometric analysis of E2-CAR T-cell phenotypes.
Mouse blood samples were processed for plasma and stored at −20° C. until use. A human TH1 cytokine panel (Biolegend, Cat. No. 740009) and a human hematopoietic stem cell cytokine panel (Biolegend, Cat. No. 740610) was used to detect human cytokines in the mouse blood. […]
Whole blood cell analysis: Plasma was removed from predetermined volumes of whole EDTA treated blood and RBCs were lysed with RBC lysis solution. […] Determination of the concentration of CAR T cells in each blood sample was calculated according to Invitrogen's instructions. CAR T cells were identified as human CD3ε+ EGFRt+ events and easily distinguished and counted using the Kaluza™ flow cytometry software. The number of CAR T cells in the circulation of each infused mouse was then represented on the graphs as the total number of CAR T cells per 100 μL of whole blood analyzed. Statistical significance was determined by utilizing an unpaired, two-tailed, students t30 test with significance set at p<0.05. […]

With `NC1=NC2N=CC(CNc3ccc(C(=O)N[C@@H](CCC(=O)NCCNC(=S)Nc4ccc(-c5c6ccc(=O)cc-6oc6cc(O)ccc56)c(C(=O)O)c4)C(=O)O)cc3)=NC2C(=O)N1` (stereo partly shown) [EC17, FA-(g)-ethylenediamine-FITC] the “CAR-T cell activation (CD69, CD137, PD1)” value [1] was “strong activators of our CAR-T cells”, the “CAR-T cell activation (CD69, CD137, PD1)” value [2] was “did trigger CAR-T cell activation, but at lower levels” and the “CAR-T cell activation (CD69, CD137, PD1)” value [3] was “strong activators of our CAR-T cells”. The “IFN-g production, difference between tumor-free and MDA-MB-231 tumor-bearing mice” value [4] was 23 fold.
